The results in this text go back to patent US20050021241A1, “Gain of function sorting for drug discovery and development” (priority 2003, published 2005).

The test system of test [1] is 5 HT2 A receptor cell lines. Nature of the test: FACS sorting of responding cells from a mixture of three color-coded 5 HT2 A receptor cell lines (WT, S3.36 A, S5.46 A). The test is classed as cell-based, human. The source says:
FIG. 18 illustrates the results obtained during steps of GOF sorting of variant Human Serotonin Receptor Type 2A populations. Three populations of cells containing one of three versions of the human serotonin receptor type 2A were stained three distinct “colors” recognizable by the FACS. The populations were combined in equal proportions into one population. One mutant is the S3.36 A, the other mutant is the S5.46 A mutant and the third group is the wild type receptor (WT). The cells were also loaded with the Ca^2+i indicator dye, indol, so that receptor-mediated signaling events could be monitored through the Ca^2+i mobilization response. The combined population was stimulated with increasing concentrations of the test compound, naphthyl piperazine, and the percentage of cells within each colored subpopulation showing a threshold Ca^2+i response was quantified. […] The sorted cells were then re-analyzed to evaluate the subpopulation from which they were derived, based on the distinct “color” used to stain each subpopulation. The identity of the sorted populations that were taken from sorting at several different compound concentrations is shown in the bottom half of the figure. […] At the high and low ends of the concentration range there was no selective responsiveness by the S3.36 A variant cells, and the FACS selected each of the populations equally. […]

Test [2] has as its target T1, S3.36 A variant of the 5HT2 A receptor (Homo sapiens, UniProt P28223, S159A).
T1 construct: expressed in transfected cells
Nature of the test: Ca2+i mobilization response (Indo-1, flow cytometry) of cells expressing variant serotonin receptor. The test is classed as cell-based. The source says:
Step 1: To observe GOF behavior it is necessary to understand the range of compound concentration that activates the wild type receptor (WT). GOF variants will respond to concentrations of the test compound at least 5 fold lower than the minimal concentration that activates the WT. An illustration is shown in FIG. 18 where a dose-response curve for one null function mutant receptor (NF), the serotonin 2 A receptor (5 HT2 A) mutant 5.46, and the WT are shown in the lower graph. The two curves are virtually identical. […] At very low concentrations, only the GOF 3.36 mutant bearing cells are isolated, and the WT and NF 5.46 mutant are only selected as the compound concentration is raised to relatively high concentrations. It will also be necessary to understand the time kinetics of the WT response so that an appropriate time window (TW) region of the response can be selected for the analysis and sort.
FIG. 18 illustrates the results obtained during steps of GOF sorting of variant Human Serotonin Receptor Type 2A populations. Three populations of cells containing one of three versions of the human serotonin receptor type 2A were stained three distinct “colors” recognizable by the FACS. The populations were combined in equal proportions into one population. One mutant is the S3.36 A, the other mutant is the S5.46 A mutant and the third group is the wild type receptor (WT). The cells were also loaded with the Ca^2+i indicator dye, indol, so that receptor-mediated signaling events could be monitored through the Ca^2+i mobilization response. The combined population was stimulated with increasing concentrations of the test compound, naphthyl piperazine, and the percentage of cells within each colored subpopulation showing a threshold Ca^2+i response was quantified. […] The sorted cells were then re-analyzed to evaluate the subpopulation from which they were derived, based on the distinct “color” used to stain each subpopulation. The identity of the sorted populations that were taken from sorting at several different compound concentrations is shown in the bottom half of the figure. […] At the high and low ends of the concentration range there was no selective responsiveness by the S3.36 A variant cells, and the FACS selected each of the populations equally.
GOF sorting enhances drug discovery by providing the ability to identify in a few months the Gain of Function (GOF) receptor variants that normally took years to identify. It was hypothesized that GOF variants could be isolated efficiently from a pool of cells, each expressing a single variant, by sorting responding cells at low concentrations of agonist, using Fluorescence Activated Cell Sorting (FACS). […]
(In general: In flow cytometry, cells or beads pass a laser one at a time.)

T1 sequence (P28223 whole entry S159A): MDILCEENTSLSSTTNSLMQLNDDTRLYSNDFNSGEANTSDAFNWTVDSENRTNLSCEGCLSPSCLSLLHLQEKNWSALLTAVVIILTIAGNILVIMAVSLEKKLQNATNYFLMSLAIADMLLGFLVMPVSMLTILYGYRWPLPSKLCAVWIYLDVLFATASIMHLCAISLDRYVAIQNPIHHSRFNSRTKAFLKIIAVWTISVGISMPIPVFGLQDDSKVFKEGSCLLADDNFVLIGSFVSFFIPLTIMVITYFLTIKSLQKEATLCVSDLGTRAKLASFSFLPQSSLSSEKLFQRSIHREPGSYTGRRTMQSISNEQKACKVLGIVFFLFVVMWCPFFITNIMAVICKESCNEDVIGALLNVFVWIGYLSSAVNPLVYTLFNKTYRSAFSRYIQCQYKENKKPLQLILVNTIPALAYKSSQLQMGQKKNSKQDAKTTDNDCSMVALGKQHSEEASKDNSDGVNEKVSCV

As to `c1ccc2c(N3CCNCC3)cccc2c1` [Naphthyl Piperazine], the “share of GOF S3.36 A variant in the sorted population” value in test [1] (50-100 nM agonist concentration range) is 90%. The “agonist concentration range of selective sorting of GOF variant S3.36 A from wild type and S5.46 A” value in test [1] (FACS sort of responding cells, mixed pool of 3 cell lines) fell in the range of 10 to 300 nM. In addition, the “agonist concentration at which cells expressing the S3.36 A variant were becoming activated” value in test [2] (WT and S5.46 A variant not activated at this concentration) is on record as 3 nM. Further, the “fold lower EC50 of S3.36 A variant than the wild type or the S5.46 A variant” value in test [2] (agonist dose-response, S3.36 A vs wild type or S5.46 A 5HT2 A receptor) is recorded as 1,000 fold. Further, the “minimum concentration that activates the 3.36 mutant cells, fold lower than that required to activate the WT” value in test [2] (mutant 3.36 vs WT, dose-response curve FIG. 18) is reported as “more than 100 fold”. Further, the “affinity of S3.36 A variant for the compound compared with S5.46 A and WT” value in test [2] (percentage of cells showing a threshold Ca2+i response, increasing concentrations) was “greater affinity”.
